{"source": "paper PMC5884652", "about": "“New antimicrobial peptide kills drug-resistant pathogens without detectable resistance” (Oncotarget, 2018)", "settings_in_all_cases": "pH (I or II) not given; 10 mM sodium phosphate buffer, 10% LB; 37° C, 24 h; mean of 3 experiments", "key": {"P. aeruginosa ATCC 15692": {"tested_on": "P. aeruginosa ATCC 15692", "type": "cell-based, Pseudomonas aeruginosa", "excerpt": "The method for peptide synthesis has been described in detail previously. […] Bacillus subtilis KCTC 1998 (LB media), Salmonella typhimurium KCTC 1926 (NB media), and Proteus vulgaris KCTC 2433 (NB media) were obtained from the Korean Collection for Type Cultures (Jeollabuk-do, Korea). E. coli CCARM 1238 was received from the Culture Collection of Antibiotic Resistant Microbes at Seoul Women’s University, Korea. Drug-resistant P. aeruginosa 3543, 3904, 3547, and 4007 and S. aureus 3126, 0027, 5157, 1635, 4761, 5159, 3359, 2122, 1630, 1870, 3511, 5156, and 3518 were resistant strains isolated from patients with otitis media in a Chonnam National University’s hospital.\nThe antibacterial activities of AMPs (melittin, clavaspirin, and its analogs) and conventional antibiotic drugs (erythromycin, gentamicin, ampicillin, and piperacidin) were determined using microdilution assays. […] Thereafter, 2× serial dilutions of each peptide (0.25–128 μM) or antibiotic (0.25–256 μM) were added to sterile 96-well plates, and aliquots of cell suspension (5 × 10^5 colony forming units (cfu)/mL) were seeded into each well. The samples were then incubated at 37° C for 24 h. At the end of the incubation, the minimum inhibitory concentrations (MICs) of the peptides were determined using a VERSA Max microplate reader (Molecular Devices Co., Sunnyvale, CA, USA) at a wavelength of 600 nm. […] MIC values were calculated as the mean of 3 independent experiments conducted in triplicate."}, "E. coli CCARM1238": {"tested_on": "E. coli CCARM1238", "assay": "microbe, parasite or virus in culture", "type": "cell-based, Escherichia coli", "excerpt": "(§1) The method for peptide synthesis has been described in detail previously. E. coli ATCC 25922 (LB media), P. aeruginosa ATCC 15692 (NB+0.5% NaCl media), Listeria monocytogenes ATCC 3710 (LB media), Staphylococcus epidermidis ATCC 12228 (LB media), and S. aureus ATCC 29213 (TSB media) were obtained from the American Type Culture Collection (Manassas, VA, USA). Bacillus subtilis KCTC 1998 (LB media), Salmonella typhimurium KCTC 1926 (NB media), and Proteus vulgaris KCTC 2433 (NB media) were obtained from the Korean Collection for Type Cultures (Jeollabuk-do, Korea). E. coli CCARM 1238 was received from the Culture Collection of Antibiotic Resistant Microbes at Seoul Women’s University, Korea. Drug-resistant P. aeruginosa 3543, 3904, 3547, and 4007 and S. aureus 3126, 0027, 5157, 1635, 4761, 5159, 3359, 2122, 1630, 1870, 3511, 5156, and 3518 were resistant strains isolated from patients with otitis media in a Chonnam National University’s hospital.\n(§2) The antibacterial activities of AMPs (melittin, clavaspirin, and its analogs) and conventional antibiotic drugs (erythromycin, gentamicin, ampicillin, and piperacidin) were determined using microdilution assays. Bacterial cells were cultured at 37° C in appropriate culture media at pH 5.5 or pH 7.4 until collection during the mid-log phase and suspended in 10 mM sodium phosphate buffer (pH 5.5 or pH 7.4) supplemented with 10% culture medium. Thereafter, 2× serial dilutions of each peptide (0.25–128 μM) or antibiotic (0.25–256 μM) were added to sterile 96-well plates, and aliquots of cell suspension (5 × 10^5 colony forming units (cfu)/mL) were seeded into each well. The samples were then incubated at 37° C for 24 h. At the end of the incubation, the minimum inhibitory concentrations (MICs) of the peptides were determined using a VERSA Max microplate reader (Molecular Devices Co., Sunnyvale, CA, USA) at a wavelength of 600 nm. […] MIC values were calculated as the mean of 3 independent experiments conducted in triplicate."}, "[1]": {"tested_on": "Listeria monocytogenes ATCC 3710", "type": "cell-based", "excerpt": "as §1, §2"}, "[2]": {"tested_on": "Staphylococcus epidermidis ATCC 12228", "type": "cell-based", "excerpt": "as §1, §2"}, "[3]": {"tested_on": "Bacillus subtilis KCTC 1998", "type": "cell-based", "excerpt": "as §1, §2"}, "P. aeruginosa 3547": {"tested_on": "P. aeruginosa 3547", "assay": "microbe, parasite or virus in culture", "type": "cell-based, Pseudomonas aeruginosa", "excerpt": "as §1, §2"}, "P. aeruginosa 3543": {"tested_on": "P. aeruginosa 3543", "assay": "microbe, parasite or virus in culture", "type": "cell-based, Pseudomonas aeruginosa", "excerpt": "as §1, §2"}, "P. aeruginosa 3904": {"tested_on": "P. aeruginosa 3904", "assay": "microbe, parasite or virus in culture", "type": "cell-based, Pseudomonas aeruginosa", "excerpt": "as §1, §2"}, "P. aeruginosa 4007": {"tested_on": "P. aeruginosa 4007", "assay": "microbe, parasite or virus in culture", "type": "cell-based, Pseudomonas aeruginosa", "excerpt": "as §1, §2"}, "S. aureus 3518": {"tested_on": "S. aureus 3518", "assay": "microbe, parasite or virus in culture", "type": "cell-based, Staphylococcus aureus", "excerpt": "as §1, §2"}, "S. aureus 3126": {"tested_on": "S. aureus 3126", "assay": "microbe, parasite or virus in culture", "type": "cell-based, Staphylococcus aureus", "excerpt": "as §1, §2"}, "S. aureus 0027": {"tested_on": "S. aureus 0027", "assay": "microbe, parasite or virus in culture", "type": "cell-based, Staphylococcus aureus", "excerpt": "as §1, §2"}, "S. aureus 3511": {"tested_on": "S. aureus 3511", "assay": "microbe, parasite or virus in culture", "type": "cell-based, Staphylococcus aureus", "excerpt": "as §1, §2"}, "S. aureus 4761": {"tested_on": "S. aureus 4761", "assay": "microbe, parasite or virus in culture", "type": "cell-based, Staphylococcus aureus", "excerpt": "as §1, §2"}, "S. aureus 5156": {"tested_on": "S. aureus 5156", "assay": "microbe, parasite or virus in culture", "type": "cell-based, Staphylococcus aureus", "excerpt": "as §1, §2"}, "S. aureus 2122": {"tested_on": "S. aureus 2122", "assay": "microbe, parasite or virus in culture", "type": "cell-based, Staphylococcus aureus", "excerpt": "as §1, §2"}, "S. aureus 5157": {"tested_on": "S. aureus 5157", "assay": "microbe, parasite or virus in culture", "type": "cell-based, Staphylococcus aureus", "excerpt": "as §1, §2"}, "S. aureus 1630": {"tested_on": "S. aureus 1630", "assay": "microbe, parasite or virus in culture", "type": "cell-based, Staphylococcus aureus", "excerpt": "as §1, §2"}, "S. aureus 5159": {"tested_on": "S. aureus 5159", "assay": "microbe, parasite or virus in culture", "type": "cell-based, Staphylococcus aureus", "excerpt": "as §1, §2"}, "S. aureus 1635": {"tested_on": "S. aureus 1635", "assay": "microbe, parasite or virus in culture", "type": "cell-based, Staphylococcus aureus", "excerpt": "as §1, §2"}, "S. aureus 3359": {"tested_on": "S. aureus 3359", "assay": "microbe, parasite or virus in culture", "type": "cell-based, Staphylococcus aureus", "excerpt": "as §1, §2"}, "S. aureus 1870": {"tested_on": "S. aureus 1870", "assay": "microbe, parasite or virus in culture", "type": "cell-based, Staphylococcus aureus", "excerpt": "as §1, §2"}, "[4]": {"tested_on": "Proteus vulgaris KCTC 2433", "type": "cell-based", "excerpt": "as §1, with “Bacillus subtilis KCTC 1998 (LB media), Salmonella typhimurium KCTC 1926 (NB media), and Proteus vulgaris KCTC 2433 (NB media) were obtained from the Korean Collection for Type Cultures (Jeollabuk-do, Korea).” left out\nas §2"}, "[5]": {"tested_on": "Salmonella typhimurium KCTC 1926", "type": "cell-based", "excerpt": "as §1, with “Bacillus subtilis KCTC 1998 (LB media), Salmonella typhimurium KCTC 1926 (NB media), and Proteus vulgaris KCTC 2433 (NB media) were obtained from the Korean Collection for Type Cultures (Jeollabuk-do, Korea).” left out\nas §2"}}, "data": [{"smiles": "CC[C@H](C)[C@H](NC(=O)CN)C(=O)NCC(=O)N[C@@H](C)C(=O)N[C@H](C(=O)N[C@@H](CC(C)C)C(=O)N[C@@H](CCCCN)C(=O)N[C@H](C(=O)N[C@@H](CC(C)C)C(=O)N[C@H](C(=O)N[C@H](C(=O)NCC(=O)N[C@@H](CC(C)C)C(=O)N1CCC[C@H]1C(=O)N[C@@H](C)C(=O)N[C@@H](CC(C)C)C(=O)N[C@H](C(=O)N[C@@H](CO)C(=O)N[C@@H](Cc1c[nH]c2ccccc12)C(=O)N[C@H](C(=O)N[C@@H](CCCCN)C(=O)N[C@@H](CCCNC(=N)N)C(=O)N[C@@H](CCCCN)C(=O)N[C@@H](CCCNC(=N)N)C(=O)N[C@@H](CCC(N)=O)C(=O)N[C@@H](CCC(N)=O)C(N)=O)[C@@H](C)CC)[C@@H](C)CC)[C@@H](C)O)[C@@H](C)O)C(C)C)C(C)C", "note": "[Melittin]", "values": [{"measurement": "MIC, P. aeruginosa", "setting": "P. aeruginosa ATCC 15692", "result": 2, "unit": "µM"}, {"measurement": "MIC", "setting": "E. coli CCARM1238", "result": 2, "unit": "µM"}, {"measurement": "MIC, L. monocytogenes", "setting": "[1]", "result": 2, "unit": "µM"}, {"measurement": "MIC, S. epidermidis", "setting": "[2]", "result": 2, "unit": "µM"}, {"measurement": "MIC, B. subtilis", "setting": "[3]", "result": 2, "unit": "µM"}, {"measurement": "MIC", "setting": "P. aeruginosa 3547", "result": 2, "unit": "µM"}, {"measurement": "MIC", "setting": "P. aeruginosa 3543", "result": 2, "unit": "µM"}, {"measurement": "MIC", "setting": "P. aeruginosa 3904", "result": 2, "unit": "µM"}, {"measurement": "MIC", "setting": "P. aeruginosa 4007", "result": 2, "unit": "µM"}, {"measurement": "MIC", "setting": "S. aureus 3518", "result": 4, "unit": "µM"}, {"measurement": "MIC", "setting": "S. aureus 3126", "result": 2, "unit": "µM"}, {"measurement": "MIC", "setting": "S. aureus 0027", "result": 2, "unit": "µM"}, {"measurement": "MIC", "setting": "S. aureus 3511", "result": 4, "unit": "µM"}, {"measurement": "MIC", "setting": "S. aureus 4761", "result": 4, "unit": "µM"}, {"measurement": "MIC", "setting": "S. aureus 5156", "result": 4, "unit": "µM"}, {"measurement": "MIC", "setting": "S. aureus 2122", "result": 4, "unit": "µM"}, {"measurement": "MIC", "setting": "S. aureus 5157", "result": 2, "unit": "µM"}, {"measurement": "MIC", "setting": "S. aureus 1630", "result": 4, "unit": "µM"}, {"measurement": "MIC", "setting": "S. aureus 5159", "result": 8, "unit": "µM"}, {"measurement": "MIC", "setting": "S. aureus 1635", "result": 2, "unit": "µM"}, {"measurement": "MIC", "setting": "S. aureus 3359", "result": 4, "unit": "µM"}, {"measurement": "MIC", "setting": "S. aureus 1870", "result": 4, "unit": "µM"}, {"measurement": "MIC, P. vulgaris", "setting": "[4]", "result": 2, "unit": "µM"}, {"measurement": "MIC, S. typhimurium", "setting": "[5]", "result": 2, "unit": "µM"}]}]}
